Test results taken from US7122523B2, “Methods for inhibiting tumor cell proliferation” (University of Southern California, priority 2001, dated 2006).

Assays:
Assay in all cases: Human tumor cell clonigenic assay (tritiated thymidine incorporation)
Format in all cases: cell-based
Breast adenocarcinoma = conditions: for Effect of AII(1–7) on proliferation: AII(1–7) 0.1 ng/ml–10 μg/ml; for IC50 (ng/ml) of AII(1–7): proliferation
Procedure: (§1) Primary and metastatic tumors obtained from the Department of Obstetrics and Gynecology Pathology Section and the Surgical Pathology Division of Los Angeles County/University of Southern California were minced into pieces less than 2 mm in diameter in the presence of RPMI-1640 (Gibco, Grand Island, NTY) containing 15% heat-inactivated fetal calf serum. Each gram of tumor tissue was treated with 10–20 mL of enzyme medium, consisting of Hanks' balanced salt solution with 0.03% DNAse (500 Kunitz units/mL; Sigma Chemical Co., St. Louis, Mo.) and 0.14% collagenase type I (Sigma). Tumor fragments were stirred for 90 minutes at 37° C. in the presence of 5% CO2. After enzymatic digestion, the free cells were decanted through 40-gauge mesh strainers and centrifuged at 200×g for 10 minutes. The supernatant was removed and viable cells were resuspended in RPMI 1640. The cell number was determined using a hematocytometer and 0.04% trypan blue dye. The cells were then centrifuged and the pellet resuspended in RPMI 1640 at 5×10^5 cells/mL.
(§2) Human cancer cells were obtained from operative specimens provided by the Division of Gynecologic Oncology, Department of Obstetrics and Gynecology, or the Department of Surgical Pathology of Los Angeles County/University of Southern California School of Medicine. Tumor cells were maintained in vitro in RPMI 1640 medium supplemented with 15% heat-inactivated fetal calf serum, 100 μg/mL streptomycin, fungizone 25 μg/mL, and 100 μ/mL penicillin.
(§3) Cells were cultured on an underlayer of 0.5% agarose (Bethesda Research Labs, Bethesda, Md.) prepared from a 3% stock of agarose with added penicillin (100 units/mL), streptomycin (100 μg/mL), and fungizone (1.25 μg/mL) (GIBCO) as per a modification of an established procedure. The cloning efficiency of this assay varied depending upon the source of the tissue. One milliliter of this 0.5% agarose mixture was added to each 16×16-mm well of a 24-well plate and the plates were refrigerated for 10 minutes at 4° C. Cells were suspended in 0.6% agarose in RPMI-1640 supplemented with antibiotics and 15% fetal calf serum. One aliquot (0.5 mL) of cell suspension was added to each underlaver at a final concentration of 5×10^4 cells/well, and the plates were refrigerated 10 minutes at 4° C.
(§4) After a 72-hour incubation at 37° C., 5 μCi of tritiated thymidine (specific activity 18.2 Ci/mmol; New England Nuclear, Boston, Mass.) was layered over each well, and the plates were returned to the incubator for an additional 24 hours, incorporation of thymidine was terminated by transferring the agarose layers to 10-mL glass centrifuge tubes (Kimble, Division of Owens, Ill.) and boiling the tubes for 15 minutes in a water bath. The volume was brought to 8 mL, the tubes were centrifuged, and the pellets were washed with phosphate-buffered saline and then dissolved in 3 mL of 0.85 N KOH for 1 hour at 80° C. The tubes were cooled on ice and the hydrolysates were precipitated by adding 30 μL of 1% human serum albumin (Sigma) and 2.4 mL of ice-cold trichloroacetic acid. After overnight storage at 4° C., precipitates were collected by centrifugation. Pellets were washed with 5% trichloroacetic acid, dissolved in 0.3 mL of 0.075 N KOH, and transferred to scintillation vials to which 5 mL of Liquiscint (National Diagnostics, Somerville, N.J.) were added. Radioactivity per vial was measured in a Nuclear-Chicago liquid scintillation counter.

[1] = test system: Cervical squamous cell carcinoma
Procedure: as §1, §2, §3, §4

Colon adenocarcinoma = conditions: Sample 25, Colon adenocarcinoma
Procedure: as §1, §2, §3, §4

[2] = test system: Colonic adenocarcinoma, Gr 3–4, moderately to poorly differentiated; conditions: Sample 36, Colonic adenocarcinoma
Procedure: as §1, §2, §3, §4

[3] = test system: Cystic poorly differentiated endometroid carcinoma of ovary; conditions: Sample 30, Cystic poorly differentiated endometroid carcinoma of ovary; AII(1–7) 0.1 ng/ml–10 μg/ml
Procedure: as §1, §2, §3, §4

[4] = test system: Endometrial adenocarcinoma; conditions: for Effect of AII(1–7) on proliferation: AII(1–7) 0.1 ng/ml–10 μg/ml; for IC50 (ng/ml) of AII(1–7): proliferation
Procedure: as §1, §2, §3, §4

[5] = Sample 7, Breast adenocarcinoma
[6] = Sample 10, Breast adenocarcinoma
[7] = Sample 20, Breast adenocarcinoma
[8] = Sample 21, Breast adenocarcinoma
[9] = Sample 24, Breast adenocarcinoma
[10] = Sample 28, Breast adenocarcinoma
[11] = Sample 4, Endometrial adenocarcinoma
[12] = Sample 8, Endometrial adenocarcinoma
[13] = Sample 11, Endometrial adenocarcinoma
[14] = Sample 18, Endometrial adenocarcinoma
[15] = Sample 22, Endometrial adenocarcinoma

## CC[C@H](C)[C@H](NC(=O)[C@H](Cc1ccc(O)cc1)NC(=O)[C@@H](NC(=O)[C@H](CCCNC(=N)N)NC(=O)[C@@H](N)CC(=O)O)C(C)C)C(=O)N[C@@H](Cc1c[nH]cn1)C(=O)N1CCC[C@H]1C(=O)O [AII(1–7), Asp-Arg-Val-Tyr-Ile-His-Pro]
Breast adenocarcinoma; [5]
  Effect of AII(1–7) on proliferation: Decreased
  IC50 (ng/ml) of AII(1–7): 2.73 ng/mL
Breast adenocarcinoma; [6]
  Effect of AII(1–7) on proliferation: No Effect
  IC50 (ng/ml) of AII(1–7): No Effect
Breast adenocarcinoma; [7]
  Effect of AII(1–7) on proliferation: Decreased
  IC50 (ng/ml) of AII(1–7): 0.3 ng/mL
Breast adenocarcinoma; [8]
  Effect of AII(1–7) on proliferation: No Effect
  IC50 (ng/ml) of AII(1–7): No Effect
Breast adenocarcinoma; [9]
  Effect of AII(1–7) on proliferation: Decreased
  IC50 (ng/ml) of AII(1–7): 4.25 ng/mL
Breast adenocarcinoma; [10]
  Effect of AII(1–7) on proliferation: Decreased
  IC50 (ng/ml) of AII(1–7): 2.97 ng/mL
[1]; Sample 37, Cervical squamous cell adenocarcinoma, proliferation
  IC50 (ng/ml) of AII(1–7): 2.73 ng/mL
[1]; Sample 37, Cervical squamous cell carcinoma, AII(1–7) 0.1 ng/ml–10 μg/ml
  Effect of AII(1–7) on proliferation: Decreased
Colon adenocarcinoma; AII(1–7) 0.1 ng/ml–10 μg/ml
  Effect of AII(1–7) on proliferation: Decreased
Colon adenocarcinoma; proliferation
  IC50 (ng/ml) of AII(1–7): 4.75 ng/mL
[2]; AII(1–7) 0.1 ng/ml–10 μg/ml
  Effect of AII(1–7) on proliferation: Decreased
[2]; proliferation
  IC50 (ng/ml) of AII(1–7): 2.55 ng/mL
[3]
  Effect of AII(1–7) on proliferation: No Effect
[4]; [11]
  Effect of AII(1–7) on proliferation: Decreased
  IC50 (ng/ml) of AII(1–7): 1.0 ng/mL
[4]; [12]
  Effect of AII(1–7) on proliferation: Decreased
  IC50 (ng/ml) of AII(1–7): 1.0 ng/mL
[4]; Sample 9, Endometrial adenocarcinoma
  Effect of AII(1–7) on proliferation: Decreased
[4]; [13]
  Effect of AII(1–7) on proliferation: No Effect
  IC50 (ng/ml) of AII(1–7): No Effect
[4]; [14]
  Effect of AII(1–7) on proliferation: No Effect
  IC50 (ng/ml) of AII(1–7): No Effect
[4]; [15]
  Effect of AII(1–7) on proliferation: Decreased
  IC50 (ng/ml) of AII(1–7): 0.1 ng/mL
[4]; Sample 23, Endometrial adenocarcinoma
  Effect of AII(1–7) on proliferation: Decreased
